According to US20260200897A1, “4-((5-(3-(4-(PYRIDIN-2-YL)CYCLOPENTYL)-1H-PYRAZOL-3-YL)AMINO)-BENZENESULFONAMIDE DERIVATIVES AND SIMILAR COMPOUNDS AS CDK INHIBITORS FOR THE TREATMENT OF CANCER” (BeOne Medicines I GmbH, priority 2023, published 2026):
pIC50: −log10 of the molar value.

Key:
CDK2/Cyclin E1 = CDK2/Cyclin E1 (Homo sapiens, UniProt P24941); test: CDK2/Cyclin E1 TR-FRET biochemical assay, 0.060 mM ATP; conditions: 0.15 μM Rb (Ser780)-biotin substrate, 120 min reaction, Table 1
CDK1/Cyclin B1 = CDK1/Cyclin B1 (Homo sapiens, UniProt P06493); test: CDK1/Cyclin B1 TR-FRET biochemical assay, 0.015 mM ATP; conditions: 0.15 μM Rb (Ser780)-biotin substrate, 120 min reaction, Table 1
Sequence of CDK1/Cyclin B1 (P06493 whole entry): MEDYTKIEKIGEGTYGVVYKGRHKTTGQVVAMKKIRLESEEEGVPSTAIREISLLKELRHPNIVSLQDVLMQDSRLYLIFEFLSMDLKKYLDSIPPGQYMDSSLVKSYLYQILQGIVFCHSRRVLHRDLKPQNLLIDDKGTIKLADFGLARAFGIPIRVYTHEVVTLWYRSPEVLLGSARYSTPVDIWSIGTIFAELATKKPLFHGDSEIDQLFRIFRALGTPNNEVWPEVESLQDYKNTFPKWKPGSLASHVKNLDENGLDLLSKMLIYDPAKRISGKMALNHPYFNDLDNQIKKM
Sequence of CDK1/Cyclin B1 (P14635 whole entry partner): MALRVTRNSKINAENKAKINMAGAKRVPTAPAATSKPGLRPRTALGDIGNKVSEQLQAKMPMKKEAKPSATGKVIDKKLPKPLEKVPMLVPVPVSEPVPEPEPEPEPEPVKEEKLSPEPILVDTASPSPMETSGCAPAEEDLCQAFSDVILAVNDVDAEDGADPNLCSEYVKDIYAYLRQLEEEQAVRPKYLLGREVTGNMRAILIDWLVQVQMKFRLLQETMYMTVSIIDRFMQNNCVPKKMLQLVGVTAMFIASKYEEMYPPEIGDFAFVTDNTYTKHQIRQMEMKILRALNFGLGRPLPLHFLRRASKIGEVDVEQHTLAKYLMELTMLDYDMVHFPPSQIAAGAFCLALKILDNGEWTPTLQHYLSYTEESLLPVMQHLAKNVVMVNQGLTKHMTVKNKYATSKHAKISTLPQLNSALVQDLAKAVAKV

pIC50 (CDK2/Cyclin E1) | pIC50 (CDK1/Cyclin B1) | Structure (SMILES)
6.51 | < 5.00 | CC(C)n1cc(O[C@@H]2CC[C@H](c3cc(Nc4ccc5c(c4F)CNS5(=O)=O)n[nH]3)C2)cn1 (relative stereo) [Example 78, cis-4-fluoro-5-((5-(3-((1-isopropyl-1H-pyrazol-4-yl)oxy)cyclopentyl)-1H-pyrazol-3-yl)amino)-2,3-dihydrobenzo[d]isothiazole 1,1-dioxide]
7.14 | 5.87 | CN1C(=O)N([C@H]2CC[C@@H](c3cc(Nc4ccc5c(c4F)CNS5(=O)=O)n[nH]3)C2)C(=O)C1(C)C (relative stereo) [Example 86, cis-3-(3-(3-((4-fluoro-1,1-dioxido-2,3-dihydrobenzo[d]isothiazol-5-yl)amino)-1H-pyrazol-5-yl)cyclopentyl)-1,5,5-trimethylimidazolidine-2,4-dione]
7.15 | 5.75 | O=S1(=O)NCc2c1ccc(Nc1cc(C3CCC(c4ncc(CO)o4)C3)[nH]n1)c2F (stereo not drawn) [Example 93, 4-fluoro-5-((5-(3-(5-(hydroxymethyl)oxazol-2-yl)cyclopentyl)-1H-pyrazol-3-yl)amino)-2,3-dihydrobenzo[d]isothiazole 1,1-dioxide]
8.34 | 7.96 | CC(C)(C)c1cnc([C@@H]2CC[C@H](c3cc(Nc4ccc5c(c4)CS(=O)(=O)N5)n[nH]3)C2)o1 (relative stereo) [Example 135, cis-5-((5-(3-(5-(tert-butyl)oxazol-2-yl)cyclopentyl)-1H-pyrazol-3-yl)amino)-1,3-dihydrobenzo[c]isothiazole 2,2-dioxide]
5.93 | < 5.00 | CC(C)N1CCN([C@H]2CC[C@@H](c3cc(Nc4ccc5c(c4F)CNS5(=O)=O)n[nH]3)C2)C1=O (relative stereo) [Example 81, cis-1-(3-(3-((4-fluoro-1,1-dioxido-2,3-dihydrobenzo[d]isothiazol-5-yl)amino)-1H-pyrazol-5-yl)cyclopentyl)-3-isopropylimidazolidin-2-one]
8.48 | 7.96 | CC(C)(C)c1cnc([C@@H]2CC[C@H](c3cc(Nc4ccc5c(c4F)CS(=O)(=O)N5)n[nH]3)C2)o1 (relative stereo) [Example 145, cis-5-((5-(3-(5-(tert-butyl)oxazol-2-yl)cyclopentyl)-1H-pyrazol-3-yl)amino)-4-fluoro-1,3-dihydrobenzo[c]isothiazole 2,2-dioxide]
6.41 | 5.11 | CC(C)(C)c1cc(O[C@@H]2CC[C@H](c3cc(Nc4ccc5c(c4F)CNS5(=O)=O)n[nH]3)C2)[nH]n1 (relative stereo) [Example 71, cis-5-((5-(3-((3-(tert-butyl)-1H-pyrazol-5-yl)oxy)cyclopentyl)-1H-pyrazol-3-yl)amino)-4-fluoro-2,3-dihydrobenzo[d]isothiazole 1,1-dioxide]
7.80 | 6.48 | CCc1cnc(C2CCC(c3cc(Nc4ccc5c(c4F)CS(=O)(=O)N5)n[nH]3)C2)o1 (stereo not drawn) [Example 144, 5-((5-(3-(5-ethyloxazol-2-yl)cyclopentyl)-1H-pyrazol-3-yl)amino)-4-fluoro-1,3-dihydrobenzo[c]isothiazole 2,2-dioxide]

Second part, the compound before the results:

Structure (SMILES) | pIC50 (CDK2/Cyclin E1) | pIC50 (CDK1/Cyclin B1)
C=C(C)c1ccncc1O[C@@H]1CC[C@H](c2cc(Nc3ccc4c(c3F)CNS4(=O)=O)n[nH]2)C1 (relative stereo) [Example 43, cis-4-fluoro-5-((5-(3-((4-(prop-1-en-2-yl)pyridin-3-yl)oxy)cyclopentyl)-1H-pyrazol-3-yl)amino)-2,3-dihydrobenzo[d]isothiazole 1,1-dioxide] | 8.37 | 7.24
O=S1(=O)NCc2c1ccc(Nc1cc([C@H]3CC[C@@H](Oc4nscc4C4CC4)C3)[nH]n1)c2F (relative stereo) [Example 53, cis-5-((5-(3-((4-cyclopropylisothiazol-3-yl)oxy)cyclopentyl)-1H-pyrazol-3-yl)amino)-4-fluoro-2,3-dihydrobenzo[d]isothiazole 1,1-dioxide] | 8.39 | 6.93
O=c1c(C2CC2)csn1[C@H]1CC[C@@H](c2cc(Nc3ccc4c(c3F)CNS4(=O)=O)n[nH]2)C1 (relative stereo) [Example 54, cis-4-cyclopropyl-2-(3-(3-((4-fluoro-1,1-dioxido-2,3-dihydrobenzo[d]isothiazol-5-yl)amino)-1H-pyrazol-5-yl)cyclopentyl)isothiazol-3 (2H)-one] | 7.31 | 6.38
CC(C)c1cnn([C@H]2CC[C@@H](c3cc(Nc4ccc5c(c4F)CNS5(=O)=O)n[nH]3)C2)c(=O)c1 (relative stereo) [Example 33, cis-2-(3-(3-((4-fluoro-1,1-dioxido-2,3-dihydrobenzo[d]isothiazol-5-yl)amino)-1H-pyrazol-5-yl)cyclopentyl)-5-isopropylpyridazin-3 (2H)-one] | 8.12 | 6.15
O=S1(=O)NCc2c1ccc(Nc1cc([C@H]3CC[C@@H](Oc4ccccn4)C3)[nH]n1)c2F (relative stereo) [Example 46, cis-4-fluoro-5-((5-(3-(pyridin-2-yloxy)cyclopentyl)-1H-pyrazol-3-yl)amino)-2,3-dihydrobenzo[d]isothiazole 1,1-dioxide] | 6.38 | 5.13
O=S1(=O)NCc2c1ccc(Nc1cc([C@H]3CC[C@@H](Oc4cnccc4C4CC4)C3)[nH]n1)c2F (relative stereo) [Example 41, cis-5-((5-(3-((4-cyclopropylpyridin-3-yl)oxy)cyclopentyl)-1H-pyrazol-3-yl)amino)-4-fluoro-2,3-dihydrobenzo[d]isothiazole 1,1-dioxide] | 7.48 | 6.32
CC(C)(C)c1cn[nH]c1O[C@@H]1CC[C@H](c2cc(Nc3ccc4c(c3F)CNS4(=O)=O)n[nH]2)C1 (relative stereo) [Example 61, cis-5-((5-(3-((4-(tert-butyl)-1H-pyrazol-5-yl)oxy)cyclopentyl)-1H-pyrazol-3-yl)amino)-4-fluoro-2,3-dihydrobenzo[d]isothiazole 1,1-dioxide] | 9.00 | 7.25
O=S1(=O)NCc2c1ccc(Nc1cc([C@H]3CC[C@@H](Oc4nnccc4C4CC4)C3)[nH]n1)c2F (relative stereo) [Example 29, cis-5-((5-(3-((4-cyclopropylpyridazin-3-yl)oxy)cyclopentyl)-1H-pyrazol-3-yl)amino)-4-fluoro-2,3-dihydrobenzo[d]isothiazole 1,1-dioxide] | 8.54 | 7.46
O=S1(=O)NCc2c1ccc(Nc1cc([C@H]3CC[C@@H](Oc4ccon4)C3)[nH]n1)c2F (relative stereo) [Example 48, cis-4-fluoro-5-((5-(3-(isoxazol-3-yloxy)cyclopentyl)-1H-pyrazol-3-yl)amino)-2,3-dihydrobenzo[d]isothiazole 1,1-dioxide] | 7.42 | 6.37
C=C(C)c1cnn([C@H]2CC[C@@H](c3cc(Nc4ccc5c(c4F)CNS5(=O)=O)n[nH]3)C2)c(=O)c1 (relative stereo) [Example 32, cis-2-(3-(3-((4-fluoro-1,1-dioxido-2,3-dihydrobenzo[d]isothiazol-5-yl)amino)-1H-pyrazol-5-yl)cyclopentyl)-5-(prop-1-en-2-yl)pyridazin-3 (2H)-one] | 7.32 | 5.45
